Measured values reported in publication PMC9743598, “OR2AT4 and OR1A2 counterregulate molecular pathophysiological processes of steroid-resistant inflammatory lung diseases in human alveolar macrophages” (Molecular Medicine, 2022).

Target: T1, OR2AT4 (Homo sapiens, UniProt A6NND4)
T1 construct: endogenous full-length receptor in primary human alveolar macrophages from bronchoalveolar lavage; estimated 34 kDa, blot signal about 40 kDa
T1 sequence (A6NND4 1-320): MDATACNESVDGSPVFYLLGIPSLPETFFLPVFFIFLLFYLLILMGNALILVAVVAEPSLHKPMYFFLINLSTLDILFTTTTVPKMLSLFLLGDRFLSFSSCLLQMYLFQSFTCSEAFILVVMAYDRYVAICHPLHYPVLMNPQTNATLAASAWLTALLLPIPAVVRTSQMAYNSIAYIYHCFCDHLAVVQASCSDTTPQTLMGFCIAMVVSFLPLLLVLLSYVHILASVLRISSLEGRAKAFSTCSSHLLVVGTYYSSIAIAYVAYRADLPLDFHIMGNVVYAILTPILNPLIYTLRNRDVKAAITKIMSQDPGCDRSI
Assay: Fura-2 single-cell calcium imaging, primary human alveolar macrophages
Assay type: cell-based
Conditions: agonist; endogenous receptor in native cells; Ringer solution

EC50: 190 µM
SMILES: CC1=CCC(CCC(C)C(C)O)C1(C)C (stereo not shown) [Sandalore]
